The values below come from publication PMC9125976, “Cyanoacetohydrazide linked to 1,2,3-triazole derivatives: a new class of α-glucosidase inhibitors” (Scientific Reports, 2022).

Experiment [1] addresses T1, α-glucosidase (Saccharomyces cerevisiae, UniProt P53341).
T1 construct: purchased Sigma-Aldrich
The conditions noted are these: cited from earlier work.

Experiment [2] deals with T2, α-Glucosidase (Saccharomyces cerevisiae, EC3.2.1.20) (Saccharomyces cerevisiae, UniProt P53341).
T2 construct: purchased Sigma-Aldrich
Description: In vitro α-glucosidase inhibition assay. Format: biochemical. As to the method: α-Glucosidase (Saccharomyces cerevisiae, EC3.2.1.20, 20 U/mg) and the substrate, […] (p-NPG) were purchased from Sigma-Aldrich and the assay was performed exactly according to our previous report. In this respect, various concentrations of each synthesized compound dissolved in DMSO, were added to potassium phosphate buffer (50 mM, pH 6.8) including enzyme (at final concentration of 0.1 U/mL), in a 96-well plate. After a 10-min incubation at 37 °C, p-NPG was added to each well to achieve final concentration of 4 mM. Then, the plate was re-incubated at 37 °C for 20 min. It should be noted that the final concentration of DMSO in each enzymatic solution was 10%. Finally, the change in the absorbance was measured at 405 nm using spectrophotometer (Synergy HTX Multi-Mode Microplate Reader–BioTek, Germany). […] The percentage of inhibition for compounds and control was calculated using Eq. (1):1 Inhibition%=ODnegative control-ODsample/ODnegative control×100OD=optical density at 405 nm.
IC50 values were calculated from the nonlinear regression curve using the Logit method.

For experiment [3], the target named is T1, α-glucosidase. The experiment can be described thus: Enzyme kinetic studies (Lineweaver–Burk plot). Format: biochemical. The following applies: for Ki: p-NPG 2–16 mM. The source says:
A Lineweaver–Burk plot was generated to identify the type of inhibition and the Michaelis–Menten constant.

Experiment [4] addresses T1, α-glucosidase. The experiment can be described thus: Fluorescence spectroscopy measurements. Format: binding. The following applies: 9e 0–1.0 μM, excitation 280 nm, emission maximum 340 nm, phosphate buffer 50 mM pH 6.8. As to the method:
Compound 9e at different concentrations (0–1.0 µM) was added into the 3 mL solution containing a fixed amount of α-glucosidase (0.1 U/mL). All mixtures were held for 10 min to equilibrate before measurements. Then, the fluorescence emission spectra were measured from 300 to 450 nm at the excitation wavelength of 280 nm on a Synergy HTX multi-mode reader (Biotek Instruments, Winooski, VT, USA) equipped with a 1.0 cm quartz cell holder. The fluorescence spectra of the buffer containing compound 9e in the absence of the enzyme were subtracted as the background fluorescence.

In experiment [5] the target is T1, α-glucosidase. Description: Thermodynamic analysis (thermal denaturation followed by fluorescence). As to the method: Thermodynamic analysis was performed as described by Mojtabavi et al., the fluorescent intensity data were plotted as a function of temperature, and the thermodynamic profile was computed[48],[49]. Therefore, the denatured fraction (FD) of protein was calculated from Eq. (2), assuming a two-state mechanism for the protein denaturation:2 FD=YN-Yobs/YN-YD.
In Eq. (2), Yobs, YN, and YD are the observed […] characteristics of a fully native and denatured conformation, respectively. Equation (3) was used to calculate the apparent equilibrium constant (K) for a reversible denaturation process between native and denatured protein states:3 K=FD/1-FD=Yobs-YD/YN-YD.
The standard Gibbs free energy change (ΔG°) for protein denaturation is given by the Eq. (4):4 ΔG^^∘=GD^∘-GN^∘=-RTlnK, where T and R are the absolute temperature and the universal gas constant, respectively. The Gibbs free energy (ΔG°) is the most valuable standard of protein conformational stability in thermal denaturation. The integrated Gibbs–Helmholtz equation was utilized for measuring changes in the Gibbs energy of a system as a function of temperature (Eq. (5)):5 ΔG^^∘=ΔHm^∘1-T/Tm-ΔCpTm-T+TLnT/Tm, where ΔCp is the heat capacity of protein denaturation. The ΔCp (11.6 kJ/mol K) of the α-glucosidase denaturation was taken from van der Kamp et al. report. In thermal denaturation, Tm is the temperature at which the protein is half denatured. ΔH°m and ΔS°m are the standard enthalpy and entropy of denaturation. The standard entropy was calculated from a relation between the standard […] of denaturation as bellow: ΔH=TmΔS.

“Also recorded” adds a separate entry of the source.

T1 sequence (P53341 whole entry): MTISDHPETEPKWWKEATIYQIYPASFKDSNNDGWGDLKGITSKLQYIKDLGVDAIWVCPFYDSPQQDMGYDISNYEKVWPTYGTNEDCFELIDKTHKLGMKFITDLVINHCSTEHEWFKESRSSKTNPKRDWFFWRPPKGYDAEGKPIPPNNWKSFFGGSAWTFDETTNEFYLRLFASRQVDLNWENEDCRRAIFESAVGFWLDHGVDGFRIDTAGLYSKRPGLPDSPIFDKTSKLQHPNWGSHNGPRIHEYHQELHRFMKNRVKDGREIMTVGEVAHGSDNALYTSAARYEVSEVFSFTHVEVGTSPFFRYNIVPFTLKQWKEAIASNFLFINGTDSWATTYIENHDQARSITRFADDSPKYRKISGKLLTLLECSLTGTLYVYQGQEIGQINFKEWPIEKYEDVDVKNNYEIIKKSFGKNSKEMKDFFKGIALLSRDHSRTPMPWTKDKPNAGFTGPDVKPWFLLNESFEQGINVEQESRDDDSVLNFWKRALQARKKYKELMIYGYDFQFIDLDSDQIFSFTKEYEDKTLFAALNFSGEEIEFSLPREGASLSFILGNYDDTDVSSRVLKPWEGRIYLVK
T2 sequence (P53341 whole entry): as above

Consider `CCc1ccc(NC(=O)Cn2cc(COc3ccc(-c4nc5ccccc5[nH]4)cc3)nn2)cc1` [B], for which the mode of inhibition result in experiment [1] is recorded as “competitive”.
Turning to `COc1cc(C=NNC(=O)CC#N)ccc1OCc1cn(Cc2ccccc2)nn1` [Compound 9a, N′-(4-((1-benzyl-1H-1,2,3-triazol-4-yl)methoxy)-3-methoxybenzylidene)-2-cyanoacetohydrazide], the IC50 in experiment [2] was above 750 µM.
On to `COc1cc(C=NNC(=O)CC#N)ccc1OCc1cn(Cc2ccccc2F)nn1` [Compound 9b, 2-Cyano-N′-(4-((1-(2-fluorobenzyl)-1H-1,2,3-triazol-4-yl)methoxy)-3-methoxybenzylidene)acetohydrazide], for which the IC50 in experiment [2] came to 1.5 ± 0.01 µM. Besides, in experiment [3], the type of inhibition entry is given as “uncompetitive inhibition; also recorded: uncompetitively” and the Ki worked out at 0.43 µM.
With `COc1cc(C=NNC(=O)CC#N)ccc1OCc1cn(Cc2ccc(F)cc2)nn1` [Compound 9c, 2-Cyano-N′-(4-((1-(4-fluorobenzyl)-1H-1,2,3-triazol-4-yl)methoxy)-3-methoxybenzylidene)acetohydrazide], the IC50 in experiment [2] amounted to 9.73 ± 0.3 µM.
Still for that read-out and setting: to `COc1cc(C=NNC(=O)CC#N)ccc1OCc1cn(Cc2ccccc2Cl)nn1` [Compound 9d, N′-(4-((1-(2-chlorobenzyl)-1H-1,2,3-triazol-4-yl)methoxy)-3-methoxybenzylidene)-2-cyanoacetohydrazide] belongs 14 ± 0.8 µM.
As to `COc1cc(C=NNC(=O)CC#N)ccc1OCc1cn(Cc2ccc(Cl)cc2)nn1` [Compound 9e, N′-(4-((1-(4-chlorobenzyl)-1H-1,2,3-triazol-4-yl)methoxy)-3-methoxybenzylidene)-2-cyanoacetohydrazide], in experiment [2], the IC50 is 1 ± 0.01 µM and the “fold better potency than the standard drug acarbose” value worked out at 754 fold. Moreover, in experiment [3], the type of inhibition result is given as “uncompetitive inhibition; also recorded: uncompetitively” and the affinity corresponds to a Ki of 0.24 µM. Further, in experiment [4], the “change of α-glucosidase fluorescence” value is “significant increase in fluorescence intensity”. Moreover, in experiment [5] (compound 9e 0.25 µM), the “Tm of α-glucosidase” value is 316 K, the “ΔHm° of α-glucosidase denaturation” value worked out at 94.47 kJ/mol and the “ΔSm° of α-glucosidase denaturation” value amounted to 298.95 J mol^−1 K^−1. Also, in experiment [5] (compound 9e 0.50 µM), the “Tm of α-glucosidase” value is reported as 315 K, the “ΔHm° of α-glucosidase denaturation” value was determined as 112.86 kJ/mol and the “ΔSm° of α-glucosidase denaturation” value came out at 358.28 J mol^−1 K^−1. Moreover, in experiment [5] (compound 9e 0.75 µM), the “Tm of α-glucosidase” value stood at 313 K, the “ΔHm° of α-glucosidase denaturation” value came to 177.09 kJ/mol and the “ΔSm° of α-glucosidase denaturation” value came out at 565.76 J mol^−1 K^−1. For the same compound, in experiment [5] (compound 9e 1.0 µM), the “Tm of α-glucosidase” value was 311 K, the “ΔHm° of α-glucosidase denaturation” value was found to be 597.50 kJ/mol and the “ΔSm° of α-glucosidase denaturation” value worked out at 1921.22 J mol^−1 K^−1.
On to `COc1cc(C=NNC(=O)CC#N)ccc1OCc1cn(Cc2ccccc2C)nn1` [Compound 9f, 2-Cyano-N′-(3-methoxy-4-((1-(2-methylbenzyl)-1H-1,2,3-triazol-4-yl)methoxy)benzylidene)acetohydrazide], for which the 50% inhibitory concentration (IC50) in experiment [2] is 28 ± 0.1 µM.
Regarding `COc1cc(C=NNC(=O)CC#N)ccc1OCc1cn(Cc2ccc(C)cc2)nn1` [Compound 9g, 2-Cyano-N′-(3-methoxy-4-((1-(4-methylbenzyl)-1H-1,2,3-triazol-4-yl)methoxy)benzylidene)acetohydrazide], the IC50 in experiment [2] is 22.8 ± 0.6 µM.
The same measure, in the same setting: to `N#CCC(=O)NN=Cc1ccc(OCc2cn(Cc3ccccc3)nn2)cc1` [Compound 9h, N′-(4-((1-benzyl-1H-1,2,3-triazol-4-yl)methoxy)benzylidene)-2-cyanoacetohydrazide] belongs 271.2 ± 0.3 µM.
For `N#CCC(=O)NN=Cc1ccc(OCc2cn(Cc3ccccc3F)nn2)cc1` [Compound 9i, 2-Cyano-N′-(4-((1-(2-fluorobenzyl)-1H-1,2,3-triazol-4-yl)methoxy)benzylidene)acetohydrazide], the half-maximal inhibitory concentration (IC50) in experiment [2] amounted to 45.89 ± 0.1 µM. Besides, in experiment [3], the type of inhibition result is listed as “competitive inhibition” and the Ki turned out to be 75 µM.
Turning to `N#CCC(=O)NN=Cc1ccc(OCc2cn(Cc3ccc(F)cc3)nn2)cc1` [Compound 9j, 2-Cyano-N′-(4-((1-(4-fluorobenzyl)-1H-1,2,3-triazol-4-yl)methoxy)benzylidene)acetohydrazide], in experiment [2], the IC50 came out at 56.6 ± 0.7 µM.
Still for that read-out and setting: the figure for `N#CCC(=O)NN=Cc1ccc(OCc2cn(Cc3ccccc3Cl)nn2)cc1` [Compound 9k, N′-(4-((1-(2-chlorobenzyl)-1H-1,2,3-triazol-4-yl)methoxy)benzylidene)-2-cyanoacetohydrazide] is 74.7 ± 2.8 µM.
Turning to `N#CCC(=O)NN=Cc1ccc(OCc2cn(Cc3ccc(Cl)cc3)nn2)cc1` [Compound 9l, N′-(4-((1-(4-chlorobenzyl)-1H-1,2,3-triazol-4-yl)methoxy)benzylidene)-2-cyanoacetohydrazide], in experiment [2], the IC50 is 21.66 ± 0.12 µM. Further, in experiment [3], the type of inhibition result was “competitive inhibition” and the affinity corresponds to a Ki of 85 µM.
As for `Cc1ccccc1Cn1cc(COc2ccc(C=NNC(=O)CC#N)cc2)nn1` [Compound 9m, 2-Cyano-N′-(4-((1-(2-methylbenzyl)-1H-1,2,3-triazol-4-yl)methoxy)benzylidene)acetohydrazide], the IC50 in experiment [2] was found to be 11.3 ± 0.2 µM.
Regarding `Cc1ccc(Cn2cc(COc3ccc(C=NNC(=O)CC#N)cc3)nn2)cc1` [Compound 9n, 2-Cyano-N′-(4-((1-(4-methylbenzyl)-1H-1,2,3-triazol-4-yl)methoxy)benzylidene)acetohydrazide], the IC50 in experiment [2] is 82.4 ± 1.3 µM.
Turning to `O=c1oc2ccccc2c(O)c1C(c1ccc(OCc2cn(Cc3ccccc3Cl)nn2)cc1)c1c(O)c2ccccc2oc1=O` [Compound A], in experiment [1], the mode of inhibition entry was “competitive”.
In the case of `O=C1Nc2ccccc2/C1=N/N=C/c1ccc(OCc2cn(Cc3ccccc3F)nn2)cc1` [Compound C], the “fold improvement in the inhibitory activity compared to acarbose” value in experiment [1] is recorded as 46 fold.
